IC50 data for 14 compounds are collected here from patent publication US20250179073A1, “TRICYCLIC HETEROCYCLE COMPOUNDS AS IAP ANTAGONISTS” (Ascentage Pharma (Suzhou) Co., Ltd., priority 2022, published 2025).

As a reminder, the IC50 is the concentration needed to halve the response being measured.

For assay [1], the system named is EVSA-T cells. In words: Cell proliferation assay (CellTiter-Glo), EVSA-T. Format: cell-based. The conditions noted are these: Homo sapiens, EVSA-T, 72 h, 72 h treatment, Celltiter-Glo luminescence. The essentials: (§1)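 Compounds tested over ten concentrations ([…]) for 72 h on EVSA-T cells in MEM/10% FBS and MDA-MB-231 cells in RPMI-1640/10% FBS, seeded at 10000/well. Luminescent CellTiter-Glo readout; IC50 fitted after normalisation to controls.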
A general note: In ATP-based viability assays light output follows the ATP content of the culture.

The test system of assay [2] is MDA-MB-231 cells. Briefly: Cell proliferation assay (CellTiter-Glo), MDA-MB-231. Format: cell-based. Conditions: Homo sapiens, MDA-MB-231, 72 h, 72 h treatment, Celltiter-Glo luminescence. The essentials:
as §1

The structures appear in SMILES notation.

On to `Cc1ncc(Cc2cc3c(n4ncnc24)C(C)(C)CN3C(=O)CN2C[C@@H](C)NC[C@@H]2CN2CCOC[C@H]2C)s1` [Compound 132, 1-(8,8-dimethyl-4-((2-methylthiazol-5-yl)methyl)-7,8-dihydro-6H-pyrrolo[2,3-e][1,2,4]triazolo[1,5-a]pyridin-6-yl)-2-((2R,5R)-5-methyl-2-(((R)-3-methylmorpholino)methyl)piperazin-1-yl)ethan-1-one], for which the IC50 stood at 56 nM in assay [1] and 220 nM in assay [2].
Regarding `C[C@@H]1CN(CC(=O)N2CC(C)(C)c3c2cc([C@@H](O)c2ccc(F)cc2)c2ncnn32)[C@@H](CN2CCOC[C@H]2C)CN1` [Compound 133, 1-(4-((S)-(4-fluorophenyl)(hydroxy)methyl)-8,8-dimethyl-7,8-dihydro-6H-pyrrolo[2,3-e][1,2,4]triazolo[1,5-a]pyridin-6-yl)-2-((2R,5R)-5-methyl-2-(((R)-3-methylmorpholino)methyl)piperazin-1-yl)ethan-1-one], the IC50 in assay [1] stood at 56 nM; in assay [2], 210 nM.
Turning to `C[C@@H]1CN(CC(=O)N2CC(C)(C)c3c2cc([C@H](O)c2ccc(F)cc2)c2ncnn32)[C@@H](CN2CCOC[C@H]2C)CN1` [Compound 134, 1-(4-((R)-(4-fluorophenyl)(hydroxy)methyl)-8,8-dimethyl-7,8-dihydro-6H-pyrrolo[2,3-e][1,2,4]triazolo[1,5-a]pyridin-6-yl)-2-((2R,5R)-5-methyl-2-(((R)-3-methylmorpholino)methyl)piperazin-1-yl)ethan-1-one], the IC50 was 83 nM in assay [1] and 190 nM in assay [2].
For `C[C@@H]1CN(CC(=O)N2CC(C)(C)c3c2cc(Cc2ccc(F)cc2)c2nn(C)c(=O)n32)[C@@H](CN2CCOC[C@H]2C)CN1` [Compound 135, 4-(4-fluorobenzyl)-2,8,8-trimethyl-6-(2-((2R,5R)-5-methyl-2-(((R)-3-methylmorpholino)methyl)piperazin-1-yl)acetyl)-2,6,7,8-tetrahydro-1H-pyrrolo[2,3-e][1,2,4]triazolo[4,3-a]pyridin-1-one], the figures for the IC50 in assay [1] and in assay [2] were 4 nM and 40 nM, respectively.
For `C[C@@H]1CN(CC(=O)N2CC(C)(C)c3c2cc(Cc2ccc(F)cc2)c2nc(C(C)(C)O)nn32)[C@@H](CN2CCOC[C@H]2C)CN1` [Compound 137, 1-(4-(4-fluorobenzyl)-2-(2-hydroxypropan-2-yl)-8,8-dimethyl-7,8-dihydro-6H-pyrrolo[2,3-e][1,2,4]triazolo[1,5-a]pyridin-6-yl)-2-((2R,5R)-5-methyl-2-(((R)-3-methylmorpholino)methyl)piperazin-1-yl)ethan-1-one] the same measures were 12 nM and 190 nM.
For `C[C@@H]1CN(CC(=O)N2CC(C)(C)c3c2cc(C(F)c2ccc(F)cc2)c2ncnn32)[C@@H](CN2CCOC[C@H]2C)CN1` (stereo partly drawn) [Compound 138, 1-(4-(fluoro(4-fluorophenyl)methyl)-8,8-dimethyl-7,8-dihydro-6H-pyrrolo[2,3-e][1,2,4]triazolo[1,5-a]pyridin-6-yl)-2-((2R,5R)-5-methyl-2-(((R)-3-methylmorpholino)methyl)piperazin-1-yl)ethan-1-one] the same measures were 33 nM and 160 nM.
For `C[C@@H]1CN(CC(=O)N2CC(C)(C)c3c2cc(Cc2ccc(F)cc2)c2nc(C4CCOCC4)nn32)[C@@H](CN2CCOC[C@H]2C)CN1` [Compound 140, 1-(4-(4-fluorobenzyl)-8,8-dimethyl-2-(tetrahydro-2H-pyran-4-yl)-7,8-dihydro-6H-pyrrolo[2,3-e][1,2,4]triazolo[1,5-a]pyridin-6-yl)-2-((2R,5R)-5-methyl-2-(((R)-3-methylmorpholino)methyl)piperazin-1-yl)ethan-1-one] the same measures were 3 nM and 45 nM.
`C[C@@H]1CN(CC(=O)N2CC(C)(C)c3c2cc(Cc2ccc(F)cc2)c2nc(C(F)F)nn32)[C@@H](CN2CCOC[C@H]2C)CN1` [Compound 142, 1-(2-(difluoromethyl)-4-(4-fluorobenzyl)-8,8-dimethyl-7,8-dihydro-6H-pyrrolo[2,3-e][1,2,4]triazolo[1,5-a]pyridin-6-yl)-2-((2R,5R)-5-methyl-2-(((R)-3-methylmorpholino)methyl)piperazin-1-yl)ethan-1-one]: the values for the IC50 in assay [1] and in assay [2] were 2 nM and 50 nM, respectively.
For `C[C@@H]1CN(CC(=O)N2CC(C)(C)c3c2cc(Cc2ccc(F)cc2)c2nc(N4CCOCC4)nn32)[C@@H](CN2CCOC[C@H]2C)CN1` [Compound 143, 1-(4-(4-fluorobenzyl)-8,8-dimethyl-2-morpholino-7,8-dihydro-6H-pyrrolo[2,3-e][1,2,4]triazolo[1,5-a]pyridin-6-yl)-2-((2R,5R)-5-methyl-2-(((R)-3-methylmorpholino)methyl)piperazin-1-yl)ethan-1-one] the same measures were 3 nM and 43 nM.
The corresponding values for `C[C@@H]1CN(CC(=O)N2CC(C)(C)c3c2cc(Cc2ccc(F)cc2)c2nc(CF)nn32)[C@@H](CN2CCOC[C@H]2C)CN1` [Compound 144, 1-(4-(4-fluorobenzyl)-2-(fluoromethyl)-8,8-dimethyl-7,8-dihydro-6H-pyrrolo[2,3-e][1,2,4]triazolo[1,5-a]pyridin-6-yl)-2-((2R,5R)-5-methyl-2-(((R)-3-methylmorpholino)methyl)piperazin-1-yl)ethan-1-one] are 3 nM and 51 nM.
The corresponding values for `C[C@@H]1CN(CC(=O)N2CC(C)(C)c3c2cc(Cc2ccc(F)cc2)c2nc(C(F)(F)F)cn32)[C@@H](CN2CCOCC23CC3)CN1` [Compound 147, 2-((2R,5R)-2-((7-oxa-4-azaspiro[2.5]octan-4-yl)methyl)-5-methylpiperazin-1-yl)-1-(4-(4-fluorobenzyl)-8,8-dimethyl-2-(trifluoromethyl)-7,8-dihydro-6H-imidazo[1,2-a]pyrrolo[2,3-e]pyridin-6-yl)ethan-1-one] are 10 nM and 120 nM.
`C[C@@H]1CN(CC(=O)N2CC(C)(C)c3c2cc(Cc2ccc(F)cc2)c2ccnn32)[C@@H](CN2CCOC[C@H]2C)CN1` [Compound 148, 1-(4-(4-fluorobenzyl)-8,8-dimethyl-7,8-dihydro-6H-pyrazolo[1,5-a]pyrrolo[2,3-e]pyridin-6-yl)-2-((2R,5R)-5-methyl-2-(((R)-3-methylmorpholino)Methyl)piperazin-1-yl)ethan-1-one]: the figures for the IC50 in assay [1] and in assay [2] were 6 nM and 100 nM, respectively.
On to `C[C@@H]1CN(CC(=O)N2CC(C)(C)c3c2cc(Cc2ccc(F)cc2)c2c(C(N)=O)cnn32)[C@@H](CN2CCOC[C@H]2C)CN1` [Compound 149, 4-(4-fluorobenzyl)-8,8-dimethyl-6-(2-((2R,5R)-5-methyl-2-(((R)-3-methylmorpholino)methyl)piperazin-1-yl)acetyl)-7,8-dihydro-6H-pyrazolo[1,5-a]pyrrolo[2,3-e]pyridine-3-carboxamide], for which the IC50 in assay [1] worked out at 7 nM; in assay [2], 100 nM.
As for `C[C@@H]1CN(CC(=O)N2CC(C)(C)c3c2cc(Cc2ccc(F)cc2)c2n[nH]c(=O)n32)[C@@H](CN2CCOC[C@H]2C)CN1` [Compound 152, 4-(4-fluorobenzyl)-8,8-dimethyl-6-(2-((2R,5R)-5-methyl-2-(((R)-3-methylmorpholino)methyl)piperazin-1-yl)acetyl)-2,6,7,8-tetrahydro-1H-pyrrolo[2,3-e][1,2,4]triazolo[4,3-a]pyridin-1-one], the IC50 in assay [1] was found to be 30 nM; in assay [2] it was 170 nM.
